Like-named read-outs stand apart in the source and are kept apart here.
Experiments:
Format in all cases: in vivo
[1] = test system: Ctenocephalides felis; test: Ctenocephalides felis in vitro contact test with adult cat fleas; conditions: application rate 5 μg/cm^2 (=500 g/ha); after 48 h; fleas dead or moribund
Experimental: Ctenocephalides felis—In Vitro Contact Tests with Adult Cat Fleas
(§1) For the coating of the test tubes, 9 mg of active compound are first dissolved in 1 ml of acetone p.a. and then diluted to the desired concentration with acetone p.a. 250 μl of the solution are distributed homogeneously on the inner walls and the base of a 25 ml glass tube by turning and rocking on an orbital shaker (rocking rotation at 30 rpm for 2 h). With 900 ppm of active compound solution and internal surface area 44.7 cm^2, given homogeneous distribution, an area-based dose of 5 μg/cm^2 is achieved.
After the solvent has evaporated off, the tubes are populated with 5-10 adult cat fleas (Ctenocephalides felis), sealed with a perforated plastic lid and incubated in a horizontal position at room temperature and ambient humidity. After 48 h, efficacy is determined. To this end, the tubes are stood upright and the fleas are knocked to the base of the tube. Fleas which remain motionless at the base or move in an uncoordinated manner are considered to be dead or moribund.
100% efficacy means that all the fleas were dead or moribund. 0% efficacy means that no fleas were harmed.

[2] = test system: Rhipicephalus sanguineus; test: Rhipicephalus sanguineus in vitro contact test with adult brown dog ticks; conditions: application rate 5 μg/cm^2; after 48 h; ticks dead or moribund
Experimental: Rhipicephalus sanguineus—In Vitro Contact Tests with Adult Brown Dog Ticks
as §1
After the solvent has evaporated off, the tubes are populated with 5-10 adult dog ticks (Rhipicephalus sanguineus), sealed with a perforated plastic lid and incubated in a horizontal position in the dark at room temperature and ambient humidity. After 48 h, efficacy is determined. To this end, the ticks are knocked to the base of the tube and incubated on a hotplate at 45-50° C. for not more than 5 min. Ticks which remain motionless on the base or move in such an uncoordinated manner that they are unable to deliberately avoid the heat by climbing upwards are considered to be dead or moribund.
An efficacy of 100% means that all the ticks were dead or moribund. 0% efficacy means that none of the ticks were harmed.

[3] = test system: Phaedon cochleariae; test: Phaedon cochleariae spray test; conditions: foliar, 168 h, application rate 100 g/ha, Chinese cabbage leaf discs, after 7 days, read-out: efficacy
Procedure, shortened: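 Chinese cabbage leaf discs sprayed with compound formulated in acetone/DMF and emulsifier-containing water, then infested with mustard beetle larvae after drying. Efficacy read after 7 days as % larvae killed.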

[4] = test system: Myzus persicae; test: Myzus persicae spray test (MYZUPE), comparative; conditions: 120 h, 5 dat, read-out: % Efficacy
Experimental: Myzus persicae—Spray Test (MYZUPE)
(§2) Solvent: • 78.0 parts by weight of acetone • 1.5 parts by weight of dimethylformamide
(§3) Emulsifier: alkylaryl polyglycol ether
(§4) To produce a suitable active compound preparation, 1 part by weight of active compound is dissolved using the stated parts by weight of solvent and made up with water containing an emulsifier concentration of 1000 ppm until the desired concentration is attained. To produce further test concentrations, the formulation is diluted with emulsifier-containing water.
Discs of Chinese cabbage leaves (Brassica pekinensis) infested by all stages of the green peach aphid (Myzus persicae) are sprayed with an active compound preparation of the desired concentration.
(§5) After the desired period of time, the efficacy in % is determined. 100% means that all the aphids have been killed; 0% means that no aphids have been killed.

[5] = test system: Spodoptera frugiperda; test: Spodoptera frugiperda spray test (SPODFR), comparative; conditions: 168 h, 0.8 g of ai/ha, 7 dat, read-out: % Efficacy
Experimental: Spodoptera frugiperda—Spray Test (SPODFR)
as §2, §3, §4
Leaf discs of maize (Zea mays) are sprayed with an active compound formulation of the desired concentration and, after drying, populated with caterpillars of the armyworm (Spodoptera frugiperda).
After the desired period of time, the efficacy in % is determined. 100% means that all the caterpillars have been killed; 0% means that no caterpillar has been killed.

[6] = test system: Myzus persicae; test: Myzus persicae spray test on bell pepper plants (MYZUPE S); conditions: 144 h, 6 dat, read-out: % Efficacy
Experimental: Myzus persicae—Spray Test (MYZUPE S)
(§6) Solvent: 14 parts by weight of dimethylformamide
as §3
as §4, with “water. If the addition of ammonium salts or/and penetrants is required, these are each added in a concentration of 1000 ppm to the formulation solution.” for “water.”
Bell pepper plants (Capsicum annuum) severely infested with the green peach aphid (Myzus persicae) are treated by spraying with the active compound formulation in the desired concentration.
After the desired time, the kill in % is determined. 100% means that all the animals have been killed; 0% means that no animals have been killed.

[7] = test system: Myzus persicae; test: Myzus persicae drench test (MYZUPE D); conditions: soil, 240 h, 10 dat, read-out: % Efficacy
Experimental: Myzus persicae—Drench Test (MYZUPE D)
Solvent: 7 parts by weight of dimethylformamide
Emulsifier: 2 part by weight of alkylaryl polyglycol ether
To produce a suitable active compound preparation, 1 part by weight of active compound is mixed with the specified amounts of solvent and emulsifier, and the concentrate is diluted with water to the desired concentration, it being necessary to include the volume of soil which is drenched in the calculation. It should be ensured that a concentration of 40 ppm of emulsifier in the soil is not exceeded. To produce further test concentrations, water is used for dilution.
Savoy cabbage (Brassica oleracea) in pots with soil and infested by all stages of the green peach aphid (Myzus persicae) is watered with an active compound preparation of the desired concentration.
as §5

[8] = test system: Phaedon cochleariae; test: Phaedon cochleariae test on cabbage plants (PHAECO S); conditions: 6 dai, read-out: % Efficacy
Experimental: Phaedon cochleariae Test (PHAECO S)
as §6
Emulsifier: 2 parts by weight of alkylaryl polyglycol ether
To produce a suitable active compound formulation, 1 part by weight of active compound is dissolved with the stated parts by weight of solvent and emulsifier and made up to the desired concentration with water. To produce further test concentrations, water is used for dilution. In the event that addition of ammonium salts or/and penetrants (rapeseed oil methyl ester) is required, these are each pipetted in at a concentration of 1000 ppm after the finished formulation solution has been diluted.
Cabbage plants (Brassica oleracea var. sabauda) are sprayed with an active compound formulation of the desired concentration and populated with 10 L2 larvae of the mustard beetle (Phaedon cochleariae).
After the desired time, the kill in % is determined. 100% means that all the larvae have been killed and 0% means that none of the larvae have been killed.

With `CCS(=O)(=O)c1c(-c2nc3cc(C(F)(F)F)cnc3n2C)ncc2cc(Br)ccc12` [Example I-037, 7-Bromo-4-ethylsulfonyl-3-[3-methyl-6-(trifluoromethyl)imidazo[4,5-b]pyridin-2-yl]isoquinoline] the efficacy [1] was 100%, the efficacy [2] was 100% and the pest or weed control at 100 g/ha [3] was 100%. For the same molecule, the Emax at 4 g/ha ([4]; 4 g of ai/ha) was 70%, the Emax at 20 g/ha ([4]; 20 g of ai/ha) was 90% and the Emax at 0.8 g/ha [5] was 100%. It also gave an Emax at 0.8 ppm ([6]; 0.8 ppm) of 100%, an Emax at 4 ppm ([6]; 4 ppm) of 100% and an Emax at 4 ppm [7] of 90%. For the same molecule, the Emax at 0.16 ppm ([8]; 120 h, infection 5 dat) was 80%, the Emax at 0.16 ppm ([8]; 288 h, infection 12 dat) was 60% and the Emax at 0.8 ppm ([8]; 288 h, 0.8 ppm, infection 12 dat) was 100%.

From patent US20230060425A1, “FUSED BICYCLIC HETEROCYCLE DERIVATIVES AS PESTICIDES” (Bayer Aktiengesellschaft, priority 2019, published 2023)
